Measured values taken from the OligoGym collection.
Several values for one entry are separate records, joined by “and”; a condition that tells them apart may be missing. Equal values may be shown once. After the bases stand the sugars from the 5' end (letter, count) and the backbone: PS all phosphorothioate, else s phosphorothioate and o phosphodiester by linkage. Methylation of C is not given here. e = 2'-O-(2-methoxyethyl) (MOE); d = 2'-deoxy (DNA)

Target: DGAT2
Conditions: ASO

Sequence | target mRNA inhibition (HepG2, 2.5 µM) | target mRNA inhibition (HepG2, 10 µM) | target mRNA inhibition (HepG2, 0.12 µM) | target mRNA inhibition (HepG2, 20 µM)
CCTCTGCTTCTTGGGCATCT (sugars e5 d10 e5, PS) | 92% and 91% | 91% and 89% |  | 
CAGCAGATGATGTCCTGCCT (sugars e5 d10 e5, PS) | 66% | 88% |  | 
CAATGCCAATGCCTAGGTCA (sugars e5 d10 e5, PS) | 70% | 90% |  | 
GTGCTCTGTGGGCTCCT (sugars e3 d10 e4, PS) | 55% and 70% | 85% and 89% |  | 
GCAGGCCTCGGGAAGCACCT (sugars e5 d10 e5, PS) | 69% and 67% | 93% and 87% |  | 
CTTGTGCTTGTCGAAGAGCT (sugars e5 d10 e5, PS) | 33% | 66% |  | 
TTCTTTTAAATAACCCACAG (sugars e5 d10 e5, PS) |  |  | 8% | 
CGAAGATCACCTGCTTGTAC (sugars e5 d10 e5, PS) |  |  | 63% | 
TTTCCACTCTTCTGACAGGT (sugars e5 d10 e5, PS) | 77% and 69% | 93% and 92% |  | 
GCTTCCTCCCACTTCAGTTT (sugars e5 d10 e5, PS) | 55% | 83% |  | 
TGGTATCCAAAGATATAGTT (sugars e5 d10 e5, PS) |  |  | 42% | 
TTATCCTTGAGGGTCTCATA (sugars e5 d10 e5, PS) |  |  | 45% | 
AGGACCCACTGGAGCACTGA (sugars e2 d13 e5, PS) |  |  | 75% | 
GGTCAGCAGGTTGTGTGTCT (sugars e5 d10 e5, PS) |  |  | 45% and 62% | 
GTTTCGGACCCACTGTGACC (sugars e3 d14 e3, PS) |  |  | 71% | 
ATTAGCAGTAGCTCAGGAGA (sugars e5 d10 e5, PS) |  |  | 48% | 
TTCGGACCCACTGTGACCTC (sugars e3 d14 e3, PS) |  |  | 64% | 
GGTAAGGCCAAGGAAGTGAG (sugars e5 d10 e5, PS) | 66% | 80% |  | 
GCTAAGCTTATTAGGTGTCT (sugars e5 d10 e5, PS) | 75% and 73% | 85% and 83% |  | 
TAGCCTGGCTTTGATAACCC (sugars e5 d10 e5, PS) |  |  | 42% | 
GAGTCTGTGCTGCATCCATG (sugars e5 d10 e5, PS) |  |  | 48% | 
AGAGCCAGCACACAGCTATG (sugars e5 d10 e5, PS) |  |  | 20% | 

Sequence | target mRNA inhibition (HepG2, 2.5 µM) | target mRNA inhibition (HepG2, 10 µM) | target mRNA inhibition (HepG2, 0.12 µM) | target mRNA inhibition (HepG2, 20 µM)
TCCGGTCAGCCTCGGCCTGA (sugars e5 d10 e5, PS) |  |  | 20% | 
GAATGGTGTGTTGGCTCCCT (sugars e5 d10 e5, PS) | 54% | 75% |  | 
CCACTGGAGCACTGAGATGA (sugars e3 d14 e3, PS) |  |  | 62% | 
CCCAGTTTCGGACCCACTGT (sugars e5 d10 e5, PS) | 24% and 25% | 33% | 85% | 57%
GTTCCAGTCAAACACCAGCC (sugars e5 d10 e5, PS) |  |  | 31% | 
AGCAGTCTGCCTGATTCCCT (sugars e5 d10 e5, PS) | 69% and 44% | 87% and 82% |  | 
GCCCTCCTCGAAGATCACCT (sugars e5 d10 e5, PS) | 37% | 76% |  | 
CCCAGTTTCGGACCCACTGT (sugars e3 d14 e3, PS) |  |  | 76% | 
TCCGCAGGGTGACTGCATTC (sugars e5 d10 e5, PS) |  |  | 48% | 
GCTTGTACACTTCATTCTCT (sugars e5 d10 e5, PS) | 42% | 85% |  | 
CCACAGGGCCCTTTCCAGAA (sugars e5 d10 e5, PS) | 58% and 53% | 87% and 85% |  | 
GACTTCCCTTCACAGAATCC (sugars e5 d10 e5, PS) |  |  | 5% | 
GCACCAAGGAATGGTGTGTT (sugars e5 d10 e5, PS) | 16% | 38% |  | 
AATCTGTGTGACCTTGGGCA (sugars e5 d10 e5, PS) | 87% and 82% | 84% and 93% |  | 
GGACCCCGGAGTAGGCGGCT (sugars e5 d10 e5, PS) | 30% | 82% |  | 
CAGCAGTCTGCCTGATTCCC (sugars e5 d10 e5, PS) | 66% | 94% |  | 
TCCATGTCAGAGAGGCT (sugars e3 d10 e4, PS) | 78% and 76% | 65% and 89% |  | 
ACAGAAAAGTGAGGCTTGGG (sugars e5 d10 e5, PS) |  |  | 40% | 
AGGAGCCCTCCTCGAAGATC (sugars e5 d10 e5, PS) |  |  | 31% | 
AGCCTGGACAAGTCCTGCCC (sugars e5 d10 e5, PS) |  |  | 79% | 79% and 92% and 91%
GCTCAGAGACTCAGCCGCAC (sugars e5 d10 e5, PS) | 41% | 60% | 86% | 47%
